{"source": "patent US11827628B2", "about": "“Compositions and methods for inhibition of the JAK pathway” (Rigel Pharmaceuticals, Inc., priority 2005, dated 2023)", "test_system": "Primary human T-cells", "assay": "Primary Human T-Cell Proliferation Assay Stimulated with IL-2 (CellTiter-Glo)", "format": "cell-based", "settings": "primary human T-cells stimulated with IL-2, proliferation; read-out: IC50, Example 42", "in_short": "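Peripheral blood T-cells pre-activated with anti-CD3/anti-CD28 and IL-2 were washed free of IL-2, then cultured with compound plus IL-2 for 72 hours at 37° C, duplicate wells. Viability read as ATP by CellTiter-Glo luminescence; IC50 reported.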", "data": [{"compound": "Cc1ccc(Nc2ncc(F)c(Nc3ccc4c(c3)CCN4S(C)(=O)=O)n2)cc1S(N)(=O)=O", "note": "[VII-61, N2-(3-Aminosulfonyl-4-methylphenyl)-5-fluoro-N4-[4-(1-methylsulfonyl)indolin-5-yl]-2,4-pyrimidinediamine]", "values": [{"measurement": "IC50", "value": 140, "unit": "nM"}]}]}
